Source: patent US20120270819A1, “USE OF COMPOUNDS WITH SGLT-1/SGLT-2 INHIBITOR ACTIVITY FOR PRODUCING MEDICAMENTS FOR TREATMENT OF BONE DISEASE” (SANOFI, priority 2009, published 2012)

Tested on: female Sprague-Dawley mature and young adult rats
Assay: Ex vivo dual energy X-ray absorptiometry (DXA) of right femur, 28-day oral rat study
Assay type: in vivo
Conditions: Young Adults
Description: The following were evaluated: clinical signs (at least weekly), body weight (weekly), food consumption (weekly), hormones (Days 13 and 27), serum and urinary biochemical markers of bone turnover (Days 13 and 27), serum chemistry (at necropsy), bone densitometry by dual energy X-ray absorptiometry (DXA) and peripheral quantitative computed tomography (pQCT) (Week 2 and 4, as well as ex vivo), macroscopic observations at necropsy, organ weights, histopathology, biomechanical strength testing and femoral length measurements.
3.1 Ex Vivo Dual Energy X-Ray Absorptiometry (DXA)
DXA was used to measure bone mineral density (BMD), bone mineral content (BMC) and area. Single DXA scans were obtained for the excised right femur from all animals euthanized at the end of the treatment period (except three animals due to damaged femoral condyles) as well as two found dead animals. These exclusions had no adverse impact on the overall outcome of the study as sufficient specimens were measured in each groups. Scans were performed with a Hologic Discovery A bone densitometer as per PCS-MTL Standard Operating Procedures.

## COc1ccc(Cc2c(OC3OC(CO)C(F)C(O)C3O)n[nH]c2C(F)(F)F)cc1 (stereo not drawn) [Example 5 of formula II]
10 mg/kg/day
  DXA femur Distal Area, percent difference from Vehicle Control: 1.7%
  DXA femur Distal BMC, percent difference from Vehicle Control: 6.4%
  DXA femur Distal BMD, percent difference from Vehicle Control: 4.7%
  DXA femur Global Area, percent difference from Vehicle Control: −2.5%
  DXA femur Global BMC, percent difference from Vehicle Control: 0.5%
  DXA femur Global BMD, percent difference from Vehicle Control: 3.2%
  DXA femur Mid Area, percent difference from Vehicle Control: −0.9%
  DXA femur Mid BMC, percent difference from Vehicle Control: −2.6%
  DXA femur Mid BMD, percent difference from Vehicle Control: −1.9%
  DXA femur Proximal Area, percent difference from Vehicle Control: −2.6%
  DXA femur Proximal BMC, percent difference from Vehicle Control: −0.8%
  DXA femur Proximal BMD, percent difference from Vehicle Control: 1.8%
10 mg/kg/day (Table 6a)
  DXA femur Mid Area, percent difference from Vehicle Control: −0.89%
  DXA femur Mid BMC, percent difference from Vehicle Control: −2.61%
  DXA femur Mid BMD, percent difference from Vehicle Control: −1.87%
10 mg/kg/day, mean
  DXA femur Distal Area: 0.37 cm^2
  DXA femur Distal BMC: 0.10 g
  DXA femur Distal BMD: 0.26 g/cm^2
  DXA femur Global Area: 1.45 cm^2
  DXA femur Global BMC: 0.30 g
  DXA femur Global BMD: 0.21 g/cm^2
  DXA femur Mid Area: 0.39 cm^2
  DXA femur Mid BMC: 0.07 g
  DXA femur Mid BMD: 0.17 g/cm^2
  DXA femur Proximal Area: 0.50 cm^2
  DXA femur Proximal BMC: 0.11 g
  DXA femur Proximal BMD: 0.22 g/cm^2
10 mg/kg/day, mean (Table 6a)
  DXA femur Mid Area: 0.39 cm^2
  DXA femur Mid BMC: 0.07 g
  DXA femur Mid BMD: 0.17 g/cm^2
50 mg/kg/day
  DXA femur Distal Area, percent difference from Vehicle Control: 0.5%
  DXA femur Distal BMC, percent difference from Vehicle Control: 8.4%
  DXA femur Distal BMD, percent difference from Vehicle Control: 7.9%
  DXA femur Global Area, percent difference from Vehicle Control: −4.7%
  DXA femur Global BMC, percent difference from Vehicle Control: 0.0%
  DXA femur Global BMD, percent difference from Vehicle Control: 4.9%
  DXA femur Mid Area, percent difference from Vehicle Control: −0.8%
  DXA femur Mid BMC, percent difference from Vehicle Control: −3.2%
  DXA femur Mid BMD, percent difference from Vehicle Control: −2.6%
  DXA femur Proximal Area, percent difference from Vehicle Control: −4.9%
  DXA femur Proximal BMC, percent difference from Vehicle Control: −4.0%
  DXA femur Proximal BMD, percent difference from Vehicle Control: 1.0%
50 mg/kg/day (Table 6a)
  DXA femur Mid Area, percent difference from Vehicle Control: −0.77%
  DXA femur Mid BMC, percent difference from Vehicle Control: −3.16%
  DXA femur Mid BMD, percent difference from Vehicle Control: −2.62%
50 mg/kg/day, mean
  DXA femur Distal Area: 0.37 cm^2
  DXA femur Distal BMC: 0.10 g
  DXA femur Distal BMD: 0.27 g/cm^2
  DXA femur Global Area: 1.42 cm^2
  DXA femur Global BMC: 0.30 g
  DXA femur Global BMD: 0.21 g/cm^2
  DXA femur Mid Area: 0.39 cm^2
  DXA femur Mid BMC: 0.07 g
  DXA femur Mid BMD: 0.17 g/cm^2
  DXA femur Proximal Area: 0.49 cm^2
  DXA femur Proximal BMC: 0.11 g
  DXA femur Proximal BMD: 0.21 g/cm^2
50 mg/kg/day, mean (Table 6a)
  DXA femur Mid Area: 0.39 cm^2
  DXA femur Mid BMC: 0.07 g
  DXA femur Mid BMD: 0.17 g/cm^2
